Measured values taken from patent US20240042046A1, “METHODS AND COMPOUNDS FOR MODULATING HUNTINGTON'S DISEASE” (Design Therapeutics, Inc., priority 2022, published 2024).
pIC50: −log10 of the molar value.

Key:
[1] = system: human HTT mRNA, SNP rs362331 T allele, GM09197 fibroblasts; experiment: Screening of HD molecules in GM09197 fibroblasts, allele-specific HTT mRNA by RT-PCR, T allele; format: cell-based; conditions: for Gm09197 Emin 48 hr T Allele (%): Emin = lowest % HTT observed within compound concentration 0.5 nM to 1000 nM; for pIC50: Homo sapiens, Fibroblast, 48-hour incubation, T allele HTT mRNA normalized to GAPDH, relative to vehicle
Method: (§1) Molecular Biology Toolkit: • qPCR primer probe sets: • RNA input normalization was assessed utilizing human glyceraldehyde 3-phosphate dehydrogenase (hGAPDH) TaqMan assay (ThermoFisher cat #4351370) or Human Cyclophillin ([…]) TaqMan assay (ThermoFisher cat #4351372) • Total HTT detection was assessed utilizing human Htt TaqMan assay (ThermoFisher cat #4331182) • Allele-specific detection of human HTT expression in HD cells containing the SNP rs362331C/T (Exon 50): for each assay, allele-specific probes to detect the SNP variant contained locked nucleic acid bases to improve allele discrimination, as compared to unmodified DNA probes.
(§2) • qPCR was performed using Agpath ID one-step reverse transcriptase polymerase chain reaction (RT-PCR) reagent
(§3) Screening of HD molecules methods: GM09197 and/or GM04022 fibroblasts were cultured in T175 flasks incubated at 37° C. and 5% CO2. Once confluency was reached, the media was removed, the cells were washed with 1×PBS, and cells were dissociated using TrypLE™ Express Enzyme. Media was added to the enzyme and collected into a 15-mL conical tube and centrifuged at 500×g for 5 minutes to pellet the cells. Media and enzyme were aspirated using a serological pipette. Cells were resuspended in fresh media and counted using a Countess 3 Automated Cell Counter. Cells were plated at a density of 15,000 cells/well in a tissue culture-treated polystyrene 96-well dish and incubated at 37° C. and 5% CO2 overnight. The next day, media was removed using an 8-channel aspirator. 200 μL media/well are added back into the plate. The molecules are formulated to 1 mM and are dispensed using a Multidrop™ Pico 8 Digital Dispenser. After a 48-hour incubation with compounds, media was removed from plates, cells were washed with 1×PBS, and cells were lysed in 40 μL per well guanidinium thiocyanate buffer. RNA was isolated and purified in […] glass fiber column plates using chaotropic salts. Human mtHTT, wtHTT, and GAPDH mRNA were measured via RT-PCR using the ThermoFisher QuantStudio™ 7 Flex System in 384-well format. Results of HTT levels were normalized to GAPDH mRNA levels. Normalized HTT mRNA levels were expressed relative to vehicle-treated samples to assess fold change after molecule treatment.
(§4) Emin for each compound is the lowest % HTT concentration observed within a compound concentration of 0.5 nM to 1000 nM.

[2] = system: human HTT mRNA, SNP rs362331 C allele, GM09197 fibroblasts; experiment: Screening of HD molecules in GM09197 fibroblasts, allele-specific HTT mRNA by RT-PCR, C allele; format: cell-based; conditions: for GM 09197 E min 48 Hr C Allele (%): Emin = lowest % HTT observed within compound concentration 0.5 nM to 1000 nM; for pIC50: Homo sapiens, Fibroblast, 48-hour incubation, C allele HTT mRNA normalized to GAPDH, relative to vehicle
Method: as §1, §2, §3, §4

Cc1sc2c(c1C)C(c1ccc(Cl)cc1)=N[C@@H](CC(=O)Nc1ccc(OCCOCCOCCOCCOCCOCCOCCOCCOCCNC(=O)CCNC(=O)c3nc(NC(=O)c4cc(NC(=O)CCNC(=O)c5nc(NC(=O)CCCNC(=O)c6cc(NC(=O)c7nc(NC(=O)CCNC(=O)c8cc(NC(=O)c9nccn9C)cn8C)cn7C)cn6C)cn5C)cn4C)cn3C)cc1)c1nnc(C)n1-2 [Compound A-1]
Gm09197 Emin 48 hr T Allele (%) [1]: C (C<80%)
pIC50 [1]: 6.94
GM 09197 E min 48 Hr C Allele (%) [2]: A (A>90%)

Cc1cc(F)cc(C)c1Oc1ccc(C(C)(C)O)cc1-c1cn(C)c(=O)c2[nH]c(C(=O)Nc3ccc(OCCOCCOCCOCCOCCOCCOCCOCCOCCNC(=O)CCNC(=O)c4nc(NC(=O)c5cc(NC(=O)CCNC(=O)c6nc(NC(=O)CCCNC(=O)c7cc(NC(=O)c8nc(NC(=O)CCNC(=O)c9cc(NC(=O)c%10nccn%10C)cn9C)cn8C)cn7C)cn6C)cn5C)cn4C)cc3)cc12 [Compound A-7]
Gm09197 Emin 48 hr T Allele (%) [1]: A (A>90%)
pIC50 [1]: < 6.00
GM 09197 E min 48 Hr C Allele (%) [2]: A (A>90%)

CCS(=O)(=O)Nc1ccc(Oc2ccc(F)cc2F)c(-c2cn(C)c(=O)c3[nH]c(C(=O)Nc4ccc(OCCOCCOCCOCCOCCOCCOCCOCCOCCNC(=O)c5cc(NC(=O)c6nc(NC(=O)[C@H](N)CCNC(=O)c7cc(NC(=O)c8nc(NC(=O)CCNC(=O)c9cc(NC(=O)c%10nccn%10C)cn9C)cn8C)cn7C)cn6C)cn5C)cc4)cc23)c1 [Compound A-21]
Gm09197 Emin 48 hr T Allele (%) [1]: A (A>90%)
GM 09197 E min 48 Hr C Allele (%) [2]: A (A>90%)

CC(=O)Nc1c(F)cc(C(=O)NC2CCC(O)CC2)cc1O[C@@H](C)c1cccc(OCCOCCOCCOCCOCCOCCOCCOCCOCCOCCOCCOCCOCCOCCOCCOCCNC(=O)CCNC(=O)c2nc(NC(=O)c3cc(NC(=O)CCNC(=O)c4nc(NC(=O)CCCNC(=O)c5cc(NC(=O)c6nc(NC(=O)CCNC(=O)c7cc(NC(=O)c8nccn8C)cn7C)cn6C)cn5C)cn4C)cn3C)cn2C)c1 (stereo partly drawn) [Compound A-31]
Gm09197 Emin 48 hr T Allele (%) [1]: B (B is 90% to 80%)
GM 09197 E min 48 Hr C Allele (%) [2]: B (B is 90% to 80%)

CC(=O)Nc1c(F)cc(C(=O)N[C@H]2CC[C@H](O)CC2)cc1O[C@@H](C)c1cccc(C(=O)NCCOCCOCCOCCOCCOCCOCCOCCOCCOCCOCCOCCOCCOCCOCCOCCNC(=O)CCNC(=O)c2nc(NC(=O)c3cc(NC(=O)CCNC(=O)c4nc(NC(=O)CCCNC(=O)c5cc(NC(=O)c6nc(NC(=O)CCNC(=O)c7cc(NC(=O)c8nccn8C)cn7C)cn6C)cn5C)cn4C)cn3C)cn2C)c1 [Compound A-32]
Gm09197 Emin 48 hr T Allele (%) [1]: B (B is 90% to 80%)
GM 09197 E min 48 Hr C Allele (%) [2]: B (B is 90% to 80%)

Cc1sc2c(c1C)C(c1ccc(Cl)cc1)=N[C@@H](CC(=O)Nc1ccc(OCCOCCOCCOCCOCCOCCOCCOCCOCCNC(=O)c3cc(NC(=O)c4nc(NC(=O)[C@H](N)CCNC(=O)c5cc(NC(=O)c6nc(NC(=O)CCNC(=O)c7cc(NC(=O)c8nccn8C)cn7C)cn6C)cn5C)cn4C)cn3C)cc1)c1nnc(C)n1-2 [Compound A-35]
Gm09197 Emin 48 hr T Allele (%) [1]: B (B is 90% to 80%)
GM 09197 E min 48 Hr C Allele (%) [2]: A (A>90%)

CCS(=O)(=O)Nc1ccc(Oc2ccc(F)cc2F)c(-c2cn(C)c(=O)c3[nH]c(C(=O)Nc4ccc(OCCOCCOCCOCCOCCOCCOCCOCCOCCOCCOCCOCCOCCOCCOCCOCCNC(=O)c5cc(NC(=O)c6nc(NC(=O)[C@H](N)CCNC(=O)c7cc(NC(=O)c8nc(NC(=O)CCNC(=O)c9cc(NC(=O)c%10nccn%10C)cn9C)cn8C)cn7C)cn6C)cn5C)cc4)cc23)c1 [Compound A-36]
Gm09197 Emin 48 hr T Allele (%) [1]: A (A>90%)
GM 09197 E min 48 Hr C Allele (%) [2]: A (A>90%)

Cc1sc2c(c1C)C(c1ccc(Cl)cc1)=N[C@@H](CC(=O)Nc1ccc(OCCOCCOCCOCCOCCOCCOCCOCCOCCNC(=O)c3cc(NC(=O)c4nc(NC(=O)c5cc(NC(=O)[C@@H](N)CCNC(=O)c6nc(NC(=O)CCNC(=O)c7cc(NC(=O)c8nccn8C)cn7C)cn6C)cn5C)cn4C)cn3C)cc1)c1nnc(C)n1-2 [Compound A-37]
Gm09197 Emin 48 hr T Allele (%) [1]: B (B is 90% to 80%)
pIC50 [1]: < 6.00
GM 09197 E min 48 Hr C Allele (%) [2]: B (B is 90% to 80%)
pIC50 [2]: < 6.00

Cc1sc2c(c1C)C(c1ccc(Cl)cc1)=N[C@@H](CC(=O)Nc1ccc(OCCOCCOCCOCCOCCOCCOCCOCCOCCOCCOCCOCCOCCOCCOCCOCCNC(=O)c3cc(NC(=O)c4nc(NC(=O)c5cc(NC(=O)[C@@H](N)CCNC(=O)c6nc(NC(=O)CCNC(=O)c7cc(NC(=O)c8nccn8C)cn7C)cn6C)cn5C)cn4C)cn3C)cc1)c1nnc(C)n1-2 [Compound A-38]
Gm09197 Emin 48 hr T Allele (%) [1]: A (A>90%)
GM 09197 E min 48 Hr C Allele (%) [2]: A (A>90%)

CCS(=O)(=O)Nc1ccc(Oc2ccc(F)cc2F)c(-c2cn(C)c(=O)c3[nH]c(C(=O)Nc4ccc(OCCOCCOCCOCCOCCOCCOCCOCCOCCNC(=O)c5cc(NC(=O)c6nc(NC(=O)c7cc(NC(=O)[C@@H](N)CCNC(=O)c8nc(NC(=O)CCNC(=O)c9cc(NC(=O)c%10nccn%10C)cn9C)cn8C)cn7C)cn6C)cn5C)cc4)cc23)c1 [Compound A-39]
Gm09197 Emin 48 hr T Allele (%) [1]: B (B is 90% to 80%)
GM 09197 E min 48 Hr C Allele (%) [2]: B (B is 90% to 80%)

CCS(=O)(=O)Nc1ccc(Oc2ccc(F)cc2F)c(-c2cn(C)c(=O)c3[nH]c(C(=O)Nc4ccc(OCCOCCOCCOCCOCCOCCOCCOCCOCCOCCOCCOCCOCCOCCOCCOCCNC(=O)c5cc(NC(=O)c6nc(NC(=O)c7cc(NC(=O)[C@@H](N)CCNC(=O)c8nc(NC(=O)CCNC(=O)c9cc(NC(=O)c%10nccn%10C)cn9C)cn8C)cn7C)cn6C)cn5C)cc4)cc23)c1 [Compound A-40]
Gm09197 Emin 48 hr T Allele (%) [1]: A (A>90%)
GM 09197 E min 48 Hr C Allele (%) [2]: A (A>90%)

Cc1sc2c(c1C)C(c1ccc(Cl)cc1)=N[C@H](CC(=O)Nc1ccc(OCCOCCOCCOCCOCCOCCOCCOCCOCCOCCOCCOCCOCCOCCOCCOCCNC(=O)CCNC(=O)c3nc(NC(=O)c4cc(NC(=O)CCNC(=O)c5nc(NC(=O)CCCNC(=O)c6cc(NC(=O)c7nc(NC(=O)CCNC(=O)c8cc(NC(=O)c9nccn9C)cn8C)cn7C)cn6C)cn5C)cn4C)cn3C)cc1)c1nnc(C)n1-2 [Compound A-45]
Gm09197 Emin 48 hr T Allele (%) [1]: C (C<80%)
GM 09197 E min 48 Hr C Allele (%) [2]: C (C<80%)

Cn1cc(NC(=O)c2nc(NC(=O)CCNC(=O)c3cc(NC(=O)c4nccn4C)cn3C)cn2C)cc1C(=O)NCCCC(=O)Nc1cn(C)c(C(=O)NCCC(=O)Nc2cc(C(=O)Nc3cn(C)c(C(=O)NCCC(=O)NCCOCCOCCOCCOCCN4C[C@H](Nc5cnn(C)c(=O)c5Br)C[C@H](c5ccccc5)C4)n3)n(C)c2)n1 [Compound A-47]
Gm09197 Emin 48 hr T Allele (%) [1]: C (C<80%)
pIC50 [1]: < 6.00
GM 09197 E min 48 Hr C Allele (%) [2]: C (C<80%)
pIC50 [2]: < 6.00

Cn1cc(NC(=O)c2nc(NC(=O)CCNC(=O)c3cc(NC(=O)c4nccn4C)cn3C)cn2C)cc1C(=O)NCCCC(=O)Nc1cn(C)c(C(=O)NCCC(=O)Nc2cc(C(=O)Nc3cn(C)c(C(=O)NCCC(=O)NCCOCCOCCOCCOCCOCCOCCOCCOCCN4C[C@H](Nc5cnn(C)c(=O)c5Br)C[C@H](c5ccccc5)C4)n3)n(C)c2)n1 [Compound A-48]
Gm09197 Emin 48 hr T Allele (%) [1]: A (A>90%)
GM 09197 E min 48 Hr C Allele (%) [2]: A (A>90%)

Cn1cc(NC(=O)c2nc(NC(=O)CCNC(=O)c3cc(NC(=O)c4nccn4C)cn3C)cn2C)cc1C(=O)NCCCC(=O)Nc1cn(C)c(C(=O)NCCC(=O)Nc2cc(C(=O)Nc3cn(C)c(C(=O)NCCC(=O)NCCOCCOCCOCCOCCOCCOCCOCCOCCOCCOCCOCCOCCOCCOCCOCCN4C[C@H](Nc5cnn(C)c(=O)c5Br)C[C@H](c5ccccc5)C4)n3)n(C)c2)n1 [Compound A-49]
Gm09197 Emin 48 hr T Allele (%) [1]: A (A>90%)
GM 09197 E min 48 Hr C Allele (%) [2]: A (A>90%)
